pIC50: −log10 of the molar value.
molecular target: T1, human PKCθ full length enzyme (Homo sapiens, UniProt Q04759); assay: PKCθ IMAP assay (fluorescence polarization); assay type: biochemical; details: not given
T1 construct: human PKCθ full length enzyme (Panvera Cat# P2996); purchased Panvera P2996
Procedure: The reaction buffer was prepared by diluting the 5× stock reaction buffer and adding DTT to obtain a concentration of 3.0 mM. […] The final concentration of compound was 2× and 10% DMSO. DMSO was added to the rest of the master mix to increase the concentration to 10%. 10 μl of the master mix containing 10% DMSO was added to the rest of the wells on the plate except the 2nd column. 20 μl was transferred from the first column to the 2nd column. The compounds were serially diluted in 2:1 ratio starting from the 2nd column. A 2× ([…]) PKCθ solution was made in the reaction buffer. 10 μl of the PKCθ solution was added to every well to achieve these final concentrations: PKCθ—1 nM; ATP—6 μM; peptide—100 nM; DMSO—5%. Samples were incubated for 25 minutes at room temperature. The binding reagent was prepared by diluting the beads in 1× binding buffer to 800:1. 50 μl of the binding reagent was added to every well and incubated for 20 minutes. FP was measured using Envision2100 (PerkinElmer Life Sciences). Wells with no ATPs and wells with no enzymes were used as controls.

T1 sequence (Q04759 whole entry): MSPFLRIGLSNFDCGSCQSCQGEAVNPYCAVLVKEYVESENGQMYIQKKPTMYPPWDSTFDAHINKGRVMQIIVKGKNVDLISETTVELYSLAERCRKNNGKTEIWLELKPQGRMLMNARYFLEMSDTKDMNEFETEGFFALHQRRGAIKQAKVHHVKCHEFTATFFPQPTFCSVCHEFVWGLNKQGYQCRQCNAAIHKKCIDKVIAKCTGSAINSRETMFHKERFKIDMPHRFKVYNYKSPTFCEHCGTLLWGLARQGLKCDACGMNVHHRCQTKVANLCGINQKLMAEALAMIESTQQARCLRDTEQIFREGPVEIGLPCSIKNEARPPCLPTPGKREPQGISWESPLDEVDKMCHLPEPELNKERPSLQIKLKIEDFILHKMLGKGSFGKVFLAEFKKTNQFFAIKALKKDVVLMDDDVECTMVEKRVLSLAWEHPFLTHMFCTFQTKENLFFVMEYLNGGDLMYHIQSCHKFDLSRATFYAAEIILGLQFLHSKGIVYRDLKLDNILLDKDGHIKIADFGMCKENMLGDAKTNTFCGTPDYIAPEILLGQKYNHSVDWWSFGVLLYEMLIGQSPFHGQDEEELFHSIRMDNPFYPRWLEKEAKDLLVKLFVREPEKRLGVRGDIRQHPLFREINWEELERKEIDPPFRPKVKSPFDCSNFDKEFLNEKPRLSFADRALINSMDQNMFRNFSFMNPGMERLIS

`Cc1c(Nc2c(C#N)cncc2-c2cc3cc(CN4CC[N+](C)([O-])CC4)ccc3o2)ccc2[nH]ccc12` [Compound 554, 4-[(4-methyl-1H-indol-5-yl)amino]-5-{5-[(4-methyl-4-oxidopiperazin-1-yl)methyl]-1-benzofuran-2-yl}nicotinonitrile] gave a pIC50 of 8.22.

same assay, conditions: human PKCθ full length enzyme, IMAP; average value; read-out: IC50 PKCθ IMAP

Going from `COc1ccc(-c2cncc(C#N)c2Nc2cccc3c2CC(=O)N3)cc1OC` [Compound 329, 5-(3,4-dimethoxyphenyl)-4-[(2-oxo-2,3-dihydro-1H-indol-4-yl)amino]nicotinonitrile] to `COc1ccc(-c2cncc(C#N)c2Nc2ccc3[nH]ccc3c2F)cc1OC` [Compound 546, 5-(3,4-dimethoxyphenyl)-4-[(4-fluoro-1H-indol-5-yl)amino]nicotinonitrile], the pIC50 rises from 5.09 to 8.30 (3.21 log units).

Going from `N#Cc1cncc(-c2cc3cc(CN4CCOCC4)ccc3s2)c1Nc1cccc2[nH]ccc12` [Compound 281, 4-(1H-indol-4-ylamino)-5-[5-(morpholin-4-ylmethyl)-1-benzothien-2-yl]nicotinonitrile] to `C#CCNCc1ccc2sc(-c3cncc(C#N)c3Nc3cccc4[nH]ccc34)cc2c1` [Compound 272, 4-(1H-indol-4-ylamino)-5-{5-[(prop-2-yn-1-ylamino)methyl]-1-benzothien-2-yl}nicotinonitrile], the pIC50 rises from 8.00 to 8.40 (0.40 log units). The second is the more potent here.

Going from `N#Cc1cncc(-c2cccc(-c3ccc(C(=O)NCCO)cc3)c2)c1Nc1ccc2[nH]ccc2c1` [Compound 199, 3′-[5-cyano-4-(1H-indol-5-ylamino)pyridin-3-yl]-N-(2-hydroxyethyl)biphenyl-4-carboxamide] to `CCCCNC(=O)c1ccc(-c2cccc(-c3cncc(C#N)c3Nc3ccc4[nH]ccc4c3)c2)cc1` [Compound 197, N-butyl-3′-[5-cyano-4-(1H-indol-5-ylamino)pyridin-3-yl]biphenyl-4-carboxamide], the pIC50 rises from 5.89 to 6.72 (0.83 log units).

Going from `Cc1c(Nc2c(C#N)cncc2-c2cccc(CN3CCN(C)CC3)c2)ccc2[nH]ccc12` [Compound 454, 4-[(4-methyl-1H-indol-5-yl)amino]-5-{3-[(4-methylpiperazin-1-yl)methyl]phenyl}nicotinonitrile] to `Cc1c(Nc2c(C#N)cncc2-c2ccc(CN3CCN(C)CC3)cc2F)ccc2[nH]ccc12` [Compound 459, 5-{2-fluoro-4-[(4-methylpiperazin-1-yl)methyl]phenyl}-4-[(4-methyl-1H-indol-5-yl)amino]nicotinonitrile], the pIC50 falls from 8.52 to 8.22 (0.30 log units).

`N#Cc1cncc(-c2cc3cc(CNCc4cccnc4)ccc3s2)c1Nc1cccc2[nH]ccc12` [Compound 289, 4-(1H-indol-4-ylamino)-5-(5-{[(pyridin-3-ylmethyl)amino]methyl}-1-benzothien-2-yl)nicotinonitrile] and `Cc1c(Nc2c(C#N)cncc2-c2cc3cc(CNCc4ccccc4)ccc3s2)ccc2[nH]ccc12` [Compound 367, 5-{5-[(benzylamino)methyl]-1-benzothien-2-yl}-4-[(4-methyl-1H-indol-5-yl)amino]nicotinonitrile] are within 0.2 log units of each other in pIC50: 8.40 for the first, 8.52 for the second.

Going from `CN(C)c1ccc(-c2cncc(C#N)c2Nc2ccc3[nH]ncc3c2)cc1` [Compound 292, 5-[4-(dimethylamino)phenyl]-4-(1H-indazol-5-ylamino)nicotinonitrile] to `COc1ccc(-c2cncc(C#N)c2Nc2ccc3[nH]ccc3c2)cc1-c1cccs1` [Compound 189, 4-(1H-indol-5-ylamino)-5-[4-methoxy-3-(2-thienyl)phenyl]nicotinonitrile], the pIC50 rises from 4.88 to 7.52 (2.64 log units).

Going from `COc1ccc(-c2cncc(C#N)c2Nc2cnc3[nH]ccc3c2Cl)cc1OC` [Compound 522, 4-[(4-chloro-1H-pyrrolo[2,3-b]pyridin-5-yl)amino]-5-(3,4-dimethoxyphenyl)nicotinonitrile] to `COc1ccc(-c2cncc(C#N)c2Nc2c(C)ccc3[nH]ccc23)cc1OC` [Compound 336, 5-(3,4-dimethoxyphenyl)-4-[(5-methyl-1H-indol-4-yl)amino]nicotinonitrile], the pIC50 falls from 7.70 to 6.70 (1.00 log units). The first is the more potent here.

`Cc1c(Nc2c(C#N)cncc2-c2ccc(OCCN(C)C)cc2Cl)ccc2[nH]ccc12` [Compound 363, 5-{2-chloro-4-[2-(dimethylamino)ethoxy]phenyl}-4-[(4-methyl-1H-indol-5-yl)amino]nicotinonitrile] and `Cc1c(Nc2c(C#N)cncc2-c2ccc(OCCCN(C)C)nc2)ccc2[nH]ccc12` [Compound 357, 6′-[3-(dimethylamino)propoxy]-4-[(4-methyl-1H-indol-5-yl)amino]-3,3′-bipyridine-5-carbonitrile] are within 0.2 log units of each other in pIC50: 7.70 for the first, 7.52 for the second.

`COc1cc(-c2cncc(C#N)c2Nc2ccc3[nH]ccc3c2C)ccc1OCCN1CCCCC1` [Compound 376, 5-[3-methoxy-4-(2-piperidin-1-ylethoxy)phenyl]-4-[(4-methyl-1H-indol-5-yl)amino]nicotinonitrile] and `COc1cc(-c2cncc(C#N)c2Nc2ccc3[nH]ccc3c2C)ccc1OCCN1CCOCC1` [Compound 378, 5-[3-methoxy-4-(2-morpholin-4-ylethoxy)phenyl]-4-[(4-methyl-1H-indol-5-yl)amino]nicotinonitrile] are within 0.2 log units of each other in pIC50: 7.70 for the first, 7.52 for the second.

`Cc1c(Nc2c(C#N)cncc2-c2cc3cc(CNCCCO)ccc3o2)ccc2[nH]ccc12` [Compound 384, 5-(5-{[(3-hydroxypropyl)amino]methyl}-1-benzofuran-2-yl)-4-[(4-methyl-1H-indol-5-yl)amino]nicotinonitrile] and `Cc1c(Nc2c(C#N)cncc2-c2cc3cc(CNCCO)ccc3o2)ccc2[nH]ccc12` [Compound 383, 5-(5-{[(2-hydroxyethyl)amino]methyl}-1-benzofuran-2-yl)-4-[(4-methyl-1H-indol-5-yl)amino]nicotinonitrile] are the same in pIC50: 8.70 for the first, 8.70 for the second.

Going from `Cc1c(Nc2c(C#N)cncc2-c2ccc(OCCNCCCn3ccnc3)cc2)ccc2[nH]ccc12` [Compound 429, 5-[4-(2-{[3-(1H-imidazol-1-yl)propyl]amino}ethoxy)phenyl]-4-[(4-methyl-1H-indol-5-yl)amino]nicotinonitrile] to `Cc1c(Nc2c(C#N)cncc2-c2ccc([N+](=O)[O-])cc2)ccc2[nH]ccc12` [Compound 570, 4-[(4-methyl-1H-indol-5-yl)amino]-5-(4-nitrophenyl)nicotinonitrile], the pIC50 falls from 8.30 to 7.80 (0.50 log units).

Going from `COc1ccc(-c2cncc(C#N)c2NC[C@H]2CC[C@H](CN)CC2)cc1OC` [Compound 441, 4-({[trans-4-(aminomethyl)cyclohexyl]methyl}amino)-5-(3,4-dimethoxyphenyl)nicotinonitrile] to `COc1ccc(-c2cncc(C#N)c2Nc2ccc3[nH]ccc3c2)cc1OCCN1CCNCC1` [Compound 232, 4-(1H-indol-5-ylamino)-5-[4-methoxy-3-(2-piperazin-1-ylethoxy)phenyl]nicotinonitrile], the pIC50 rises from 6.28 to 6.70 (0.42 log units).

First: Cc1c(Nc2c(C#N)cncc2-c2cc3cc(CNCc4ccccn4)ccc3o2)ccc2[nH]ccc12 [Compound 398, 4-[(4-methyl-1H-indol-5-yl)amino]-5-(5-{[(pyridin-2-ylmethyl)amino]methyl}-1-benzofuran-2-yl)nicotinonitrile]
Second: Cc1c(Nc2c(C#N)cncc2-c2cc3cc(CN4CCN(C)CC4)ccc3o2)ccc2[nH]ccc12 [Compound 462, 4-[(4-methyl-1H-indol-5-yl)amino]-5-{5-[(4-methylpiperazin-1-yl)methyl]-1-benzofuran-2-yl}nicotinonitrile]
The pIC50 of the first is 1.18 log units lower: 8.52 for the first, 9.70 for the second. The second is the more potent here.

Going from `CNC(=O)c1ccc(-c2cncc(C#N)c2Nc2ccc3[nH]ccc3c2C)cc1` [Compound 580, 4-{5-cyano-4-[(4-methyl-1H-indol-5-yl)amino]pyridin-3-yl}-N-methylbenzamide] to `Cc1c(Nc2c(C#N)cncc2-c2cccc(N)c2)ccc2[nH]ccc12` [Compound 572, 5-(3-aminophenyl)-4-[(4-methyl-1H-indol-5-yl)amino]nicotinonitrile], the pIC50 falls from 7.80 to 7.30 (0.50 log units). The first is the more potent here.

First: COc1ccc(-c2cncc(C#N)c2Nc2ccc3[nH]ccc3c2)cc1OCCNCCc1cccnc1 [Compound 252, 4-(1H-indol-5-ylamino)-5-(4-methoxy-3-{2-[(2-pyridin-3-ylethyl)amino]ethoxy}phenyl)nicotinonitrile]
Second: Cc1c(Nc2c(C#N)cncc2-c2ccc3cc[nH]c3c2)ccc2[nH]ccc12 [Compound 588, 5-(1H-indol-6-yl)-4-[(4-methyl-1H-indol-5-yl)amino]nicotinonitrile]
The pIC50 of the first is 0.28 log units higher: 7.52 for the first, 7.24 for the second.

Compared with `Cc1c(Nc2c(C#N)cncc2-c2ccccc2CN(C)C)ccc2[nH]ccc12` [Compound 550, 5-{2-[(dimethylamino)methyl]phenyl}-4-[(4-methyl-1H-indol-5-yl)amino]nicotinonitrile], `Cc1c(Nc2c(C#N)cncc2-c2cccc3cccnc23)ccc2[nH]ccc12` [Compound 590, 4-[(4-methyl-1H-indol-5-yl)amino]-5-quinolin-8-ylnicotinonitrile] is 0.68 log units lower in pIC50: 6.69 for the first, 6.01 for the second.

Going from `CCN1CCN(Cc2ccc3oc(-c4cncc(C#N)c4Nc4ccc5[nH]ccc5c4C)cc3c2)CC1` [Compound 553, 5-{5-[(4-ethylpiperazin-1-yl)methyl]-1-benzofuran-2-yl}-4-[(4-methyl-1H-indol-5-yl)amino]nicotinonitrile] to `N#Cc1cncc(-c2cc3cc(CNCCCCO)ccc3s2)c1Nc1cccc2[nH]ccc12` [Compound 277, 5-(5-{[(4-hydroxybutyl)amino]methyl}-1-benzothien-2-yl)-4-(1H-indol-4-ylamino)nicotinonitrile], the pIC50 falls from 9.32 to 8.52 (0.80 log units).

With `N#Cc1cncc(-c2cccc3c2oc2ccccc23)c1Nc1cccc2[nH]ccc12` [Compound 319, 5-dibenzo[b,d]furan-4-yl-4-(1H-indol-4-ylamino)nicotinonitrile] the pIC50 was 7.22.

From US7781591B2, “Substituted 3-cyanopyridines as protein kinase inhibitors” (Wyeth LLC, priority 2006, dated 2010)
